According to patent publication US20170247366A1, “SUBSTITUTED 4-ALKOXYPICOLINAMIDE ANALOGS AS MGLUR5 NEGATIVE ALLOSTERIC MODULATORS AND METHODS OF MAKING AND USING THE SAME” (VANDERBILT UNIVERSITY, priority 2014, published 2017):

target: T1, rat mGluR5 (Rattus norvegicus, UniProt P31424); assay: mGluR5 calcium flux assay in HEK 293A cells, negative allosteric modulation of glutamate EC80 response; type: cell-based; conditions: HEK cells transfected with rat mGluR5; glutamate EC80; ± is standard error of at least three experiments
T1 construct: expressed in transfected cells
Description: HEK 293A cells stably expressing either rat or human mGluR5 were plated in black-walled, clear-bottomed, poly-D-lysine coated 384-well plates in 20 μL of assay medium (DMEM containing 10% dialyzed FBS, 20 mM HEPES, 100 units/mL penicillin/streptomycin plus 250 ng/mL Fungizone, and 1 mM sodium pyruvate) at a density of 20K cells/well. The cells were grown overnight at 37° C. in the presence of 5% CO2. The next day, medium was removed and the cells incubated with 20 μL of 2.3 µM Fluo-4, AM prepared as a 2.3 mM stock in DMSO and mixed in a 1:1 ratio with 10% (w/v) pluronic acid F-127 and diluted in assay buffer (Hank's balanced salt solution, 20 mM HEPES, and 2.5 mM probenecid) for 45 minutes at 37° C. Dye was removed, 20 μL of assay buffer was added, and the plate was incubated for 5 minutes at room temperature.
Ca^2+ flux was measured using the Functional Drug Screening System (FDSS7000, Hamamatsu, Japan). After establishment of a fluorescence baseline for about 3 seconds, the compounds of the present invention were added to the cells, and the response in cells was measured. 2.3 minutes later an EC20 concentration of the mGluR5 receptor agonist glutamate was added to the cells, and the response of the cells was measured for 1.9 minutes; an EC80 concentration of agonist was added and readings taken for an additional 1.7 minutes. All test compounds were dissolved and diluted to a concentration of 10 mM in 100% DMSO. Compounds were then serially diluted 1:3 in DMSO into 10 point concentration response curves, transferred to daughter plates, and further diluted into assay buffer to a 2× stock. Calcium fluorescence measures were recorded as fold over basal fluorescence; raw data was then normalized to the maximal response to glutamate. Antagonism of the agonist response of the mGluR5 receptor in the present invention was observed as a decrease in response to nearly maximal concentrations of glutamate in the presence of compound compared to the response to glutamate in the absence of compound.
The raw data file containing all time points was used as the data source in the analysis template. This was saved by the FDSS as a tab-delimited text file. Data were normalized using a static ratio function (F/F0) for each measurement of the total 360 values per well divided by each well's initial value. Data were then reduced to peak amplitudes (Max−Initial Min) using a time range that starts approximately 3 seconds prior to the glutamate EC20/EC80 addition and continues for approximately 90-120 seconds. This is sufficient time to capture the peak amplitude of the cellular calcium response. Individual amplitudes were expressed as % EMax by multiplying each amplitude by 100 and then dividing the product by the mean of the amplitudes derived from the glutamate ECMax-treated wells. IC50 values for test compounds were generated by fitting the normalized values versus the log of the test compound concentration (in mol/L) using a 4 parameter logistic equation where none of the parameters were fixed. Each of the three values collected at each concentration of test compound were weighted evenly.
For NAMs with a CRC that plateaus above 10% Glu Max, the IC50 values are reported, the compound is designated a “partial NAM” and the % Glu Max is reported. […] Compounds without measurable activity are designated as “>30,000 nM” since the top concentration of compound tested in the assay is 30 µM. Exemplary data are provided in Tables 1 and 2 below.
Table 1 below lists specific compounds, experimentally determined molecular mass, and mGluR5 activity determined in a cell-based assay. The mGluR5 activity was determined using the metabotropic glutamate receptor activity assays in human embryonic kidney cells as described herein, wherein the human embryonic kidney cells were transfected with rat mGluR5. The mGluR5 activity data for some compounds are shown as the average of at least three experiments with the standard error in these cases. […]

T1 sequence (P31424 21-1203): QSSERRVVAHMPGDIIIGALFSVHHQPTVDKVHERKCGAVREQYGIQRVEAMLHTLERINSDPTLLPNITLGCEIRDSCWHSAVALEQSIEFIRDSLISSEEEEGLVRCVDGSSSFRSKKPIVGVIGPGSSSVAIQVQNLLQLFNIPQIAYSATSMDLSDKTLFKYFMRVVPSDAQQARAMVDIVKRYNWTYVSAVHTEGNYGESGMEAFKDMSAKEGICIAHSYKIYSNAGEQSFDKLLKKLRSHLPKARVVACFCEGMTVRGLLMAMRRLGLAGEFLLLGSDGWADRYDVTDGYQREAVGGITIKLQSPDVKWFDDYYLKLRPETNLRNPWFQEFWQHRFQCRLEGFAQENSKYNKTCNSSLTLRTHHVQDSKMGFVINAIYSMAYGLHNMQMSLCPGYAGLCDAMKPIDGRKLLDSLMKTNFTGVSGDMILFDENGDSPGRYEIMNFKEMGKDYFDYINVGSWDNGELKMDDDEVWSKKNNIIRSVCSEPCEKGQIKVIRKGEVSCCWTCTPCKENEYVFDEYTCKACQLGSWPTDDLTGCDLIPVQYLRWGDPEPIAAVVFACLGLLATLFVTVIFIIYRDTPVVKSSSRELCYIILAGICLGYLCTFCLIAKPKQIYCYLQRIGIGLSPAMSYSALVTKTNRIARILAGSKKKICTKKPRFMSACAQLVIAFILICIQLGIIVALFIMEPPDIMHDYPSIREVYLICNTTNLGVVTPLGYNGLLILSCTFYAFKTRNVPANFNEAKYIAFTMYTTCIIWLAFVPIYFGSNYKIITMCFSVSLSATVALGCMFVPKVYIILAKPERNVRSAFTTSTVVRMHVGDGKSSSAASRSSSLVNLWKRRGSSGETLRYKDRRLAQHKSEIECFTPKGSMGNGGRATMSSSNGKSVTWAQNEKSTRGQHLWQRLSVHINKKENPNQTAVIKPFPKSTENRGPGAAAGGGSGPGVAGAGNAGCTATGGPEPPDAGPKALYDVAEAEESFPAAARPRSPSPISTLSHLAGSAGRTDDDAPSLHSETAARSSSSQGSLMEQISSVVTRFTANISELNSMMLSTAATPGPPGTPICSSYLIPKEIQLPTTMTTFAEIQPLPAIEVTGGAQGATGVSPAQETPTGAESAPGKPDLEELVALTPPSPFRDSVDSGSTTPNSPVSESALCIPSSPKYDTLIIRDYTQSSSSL

Compound	IC50 [µM]
CCOCCOc1cc(C)nc(C(=O)Nc2ccc(F)cn2)c1	2.1
Cc1cc(OCC2CCO2)cc(C(=O)Nc2ccc(F)cn2)n1 (centres unmarked)	2.48
CCC(=O)N1CC(Oc2cc(C)nc(C(=O)Nc3nc(C)cs3)c2)C1	0.611
Cc1cc(OC2CN(C(=O)CC(C)C)C2)cc(C(=O)Nc2ccc(F)cn2)n1	4.33
Cc1cc(OCC2COCCO2)cc(C(=O)Nc2ccccn2)n1 (centres unmarked)	1.78
Cc1cc(OC2CN(S(=O)(=O)CC(C)C)C2)cc(C(=O)Nc2nc(C)cs2)n1	> 10
COc1ccc(NC(=O)c2cc(OC3COC3)cc(C)n2)nc1	1.39
Cc1cc(OC2CN(C(=O)N(C)C)C2)cc(C(=O)Nc2nc(C)cs2)n1	> 10
CCCS(=O)(=O)N1CC(Oc2cc(C)nc(C(=O)Nc3nc(C)cs3)c2)C1	0.789
CCS(=O)(=O)N1CC(Oc2cc(C)nc(C(=O)Nc3nc(C)cs3)c2)C1	1.27
CC(=O)N1CC(Oc2cc(C)nc(C(=O)Nc3ccc(F)cn3)c2)C1	0.756 ± 0.13
CO[C@H](C)COc1cc(C)nc(C(=O)Nc2ccc(F)cn2)c1	0.718
Cc1cc(OC2CN(C(=O)CC(C)C)C2)cc(C(=O)Nc2nc(C)cs2)n1	1.67
COCCOCCOc1cc(C)nc(C(=O)Nc2nc(C)cs2)c1	0.954
Cc1cc(OC2CCCCC2)cc(C(=O)Nc2ccc(F)cn2)n1	3.35
CCCOC(=O)N1CC(Oc2cc(C)nc(C(=O)Nc3ccc(F)cn3)c2)C1	> 10
CO[C@@H](C)COc1cc(C)nc(C(=O)Nc2ccc(F)cn2)c1	4.93
Cc1ccc(NC(=O)c2cc(OC3COC3)cc(C)n2)nc1	1.48
COC[C@@H](C)Oc1cc(C)nc(C(=O)Nc2ccccn2)c1	2.13
Cc1cc(OCC2COC2)cc(C(=O)Nc2ccc(F)cn2)n1	4.3
Cc1cc(OC2CCS(=O)(=O)C2)cc(C(=O)Nc2ccc(F)cn2)n1 (centres unmarked)	0.634

Continued by falling IC50, values first:

IC50 [µM]	Compound
0.61	Cc1cc(OCC2CCOCC2)cc(C(=O)Nc2nc(C)cs2)n1
0.527	COCCOc1cc(C)nc(C(=O)Nc2ccc(F)cn2)c1
0.497	Cc1cc(OC2CCCOC2)cc(C(=O)Nc2ccc(F)cn2)n1 (centres unmarked)
0.469	Cc1cc(OC[C@@H]2CCOC2)cc(C(=O)Nc2ccc(F)cn2)n1
0.446	Cc1cc(OC2CCOCC2)cc(C(=O)Nc2nc(C)cs2)n1
0.392	Cc1cc(OC2CS(=O)(=O)C2)cc(C(=O)Nc2nc(C)cs2)n1
0.353 ± 0.083	Cc1cc(O[C@@H]2CCCOC2)cc(C(=O)Nc2ccc(F)cn2)n1
0.273	Cc1cc(OCC2CCCO2)cc(C(=O)Nc2nc(C)cs2)n1 (centres unmarked)
0.2	Cc1cc(OCC2CCOC2)cc(C(=O)Nc2nc(C)cs2)n1 (centres unmarked)
0.182	Cc1cc(OC2CCC2)cc(C(=O)Nc2ccc(F)cn2)n1
0.18	Cc1cc(OC2C[S+]([O-])C2)cc(C(=O)Nc2nc(C)cs2)n1 (centres unmarked)
0.171	Cc1cc(O[C@@H]2CCOC2)cc(C(=O)Nc2nc(C)c(F)s2)n1
0.162	Cc1cc(OC2COC2)cc(C(=O)Nc2cccc(Cl)n2)n1
0.14	Cc1cc(OC2CCCOC2)cc(C(=O)Nc2nc(C)cs2)n1 (centres unmarked)
0.133 ± 0.014	Cc1cc(O[C@H]2CCOC2)cc(C(=O)Nc2nc(C)cs2)n1
0.081 ± 0.013	Cc1cc(O[C@H]2CO[C@H](C)C2)cc(C(=O)Nc2nc(C)cs2)n1
0.075	Cc1cc(O[C@H]2CCCOC2)cc(C(=O)Nc2ccccn2)n1
0.071	Cc1cc(O[C@@H]2CCOC2)cc(C(=O)Nc2nc(CF)cs2)n1
0.042 ± 0.009	Cc1cc(O[C@@H]2CCOC2)cc(C(=O)Nc2nc(C)cs2)n1
0.037	Cc1cc(OC2CSC2)cc(C(=O)Nc2ccc(F)cn2)n1

same assay, conditions: rat mGluR5; average Glu Max at 30 μM; CRC does not hit a plateau

Compound	% Glu Max at single concentration [%]
Cc1cc(OC2CN(S(=O)(=O)CC(C)C)C2)cc(C(=O)Nc2nc(C)cs2)n1	59
Cc1cc(OC2CN(C(=O)N(C)C)C2)cc(C(=O)Nc2nc(C)cs2)n1	31
CCCOC(=O)N1CC(Oc2cc(C)nc(C(=O)Nc3ccc(F)cn3)c2)C1	37
